In patent publication US11130780B2, “Inhibitors of growth factor activation enzymes” (Washington University, priority 2015, dated 2021):
Residues, ends and D or L forms follow the SMILES beside them. *: point of attachment. ACC = NC(=O)Cc1cc(=O)oc2cc(N*)ccc12

Assays:
Format in all cases: biochemical
hepsin [1] = biological target: T1, hepsin (Homo sapiens, UniProt P05981); test: P4-P2 substrate specificity using HyCoSuL, hepsin; parameters: concentration or dose not given beside the values; settings: HyCoSuL substrate library; for P2 Position % Activity Hepsin: amino acid fixed at P2 position; for P3 Position % Activity Hepsin: amino acid fixed at P3 position; for P4 Position % Activity Hepsin: amino acid fixed at P4 position
T1 construct: purchased R&D Systems 4776-SE-010
Experimental: (§1) Each of the P4, P3, and P2 sublibraries were screened at the 100 μM concentration with hepsin either HGFA in a 100 μL final volume per well (99 μL of protease in buffer+1 μL of 10 mM substrates mixture). The total time of the assay was 30 minutes, however only linear portions of the progress curve (5-15 minutes) were used for velocity (RFU/s) calculations. Each sublibrary screening was repeated at least 3-times and the average value calculated from each measurement was used to create the substrate specificity matrix—the best recognized amino acid in each position was set to 100%, and other amino acids were adjusted accordingly.
(§2) Recombinant human hepsin (10 μg in 20 uL, 4776-SE-010, R&D Systems) was added to the 100 μL of activation buffer (0.1 M Tris, 0.15 M NaCl, 0.01 M CaCl2, 0.05% TRITON-X, pH=8.0) and incubated at 37° C. for 24 hours (hepsin concentration in activation buffer 2 μM). Once activated hepsin was diluted in assay buffer (0.05 M Tris, pH=9.0) to the final concentration of 4 nM and incubated at 37° C. for 15 minutes before added to a substrate.

HGFA [2] = biological target: T2, HGFA (Homo sapiens, UniProt Q04756); test: P4-P2 substrate specificity using HyCoSuL, HGFA; parameters: P3 Position % Activity HGFA / P2 Position % Activity HGFA: concentration or dose not given beside the values; P4 Position % Activity HGFA: tested at 100 µM; settings: HyCoSuL substrate library; for P2 Position % Activity HGFA: amino acid fixed at P2 position; for P3 Position % Activity HGFA: amino acid fixed at P3 position; for P4 Position % Activity HGFA: amino acid fixed at P4 position
T2 sequence (Q04756 408-655 limits assumed): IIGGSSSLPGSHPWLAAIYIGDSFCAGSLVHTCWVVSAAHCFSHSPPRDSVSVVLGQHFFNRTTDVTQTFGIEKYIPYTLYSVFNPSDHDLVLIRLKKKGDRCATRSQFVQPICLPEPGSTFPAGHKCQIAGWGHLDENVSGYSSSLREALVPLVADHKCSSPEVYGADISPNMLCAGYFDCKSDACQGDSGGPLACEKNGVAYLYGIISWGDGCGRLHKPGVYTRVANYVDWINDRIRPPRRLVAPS
T2 sequence (Q04756 373-407 partner limits assumed): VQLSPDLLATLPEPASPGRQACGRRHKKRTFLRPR
Experimental: as §1
(§3) HFGA enzyme was diluted in the assay buffer (0.15 M NaCl, 0.025 M Tris, 0.005 M CaCl2, pH=8.0) to the final concentration of 10-20 nM (depending of sublibrary) and incubated at 25° C. for 30 minutes before added to a substrate.

HGFA [3] = biological target: T2, HGFA; test: P1 substrate specificity using Ac-Ala-Arg-Leu-P1-ACC individual substrate library, HGFA; settings: substrate 5 μM; best amino acid set to 100%
Experimental: as §3
(§4) The protocol for both enzymes activation and incubation are as the same as in HyCoSuL screening. The P1 individual substrate library was used at the final concentration of 5 μM. The total time of the assay was 30 min, however only linear portions of the progress curve (5-15 minutes) were used for velocity (RFU/s) calculations. Each screening for hepsin either HGFA was repeated 3-times and the average value for each measurement was used to create the substrate specificity matrix.

hepsin [4] = biological target: T1, hepsin; test: P1 substrate specificity using Ac-Ala-Arg-Leu-P1-ACC individual substrate library, hepsin; settings: substrate 5 μM; best amino acid set to 100%
Experimental: as §2, §4

T1 sequence (P05981 163-417 limits assumed): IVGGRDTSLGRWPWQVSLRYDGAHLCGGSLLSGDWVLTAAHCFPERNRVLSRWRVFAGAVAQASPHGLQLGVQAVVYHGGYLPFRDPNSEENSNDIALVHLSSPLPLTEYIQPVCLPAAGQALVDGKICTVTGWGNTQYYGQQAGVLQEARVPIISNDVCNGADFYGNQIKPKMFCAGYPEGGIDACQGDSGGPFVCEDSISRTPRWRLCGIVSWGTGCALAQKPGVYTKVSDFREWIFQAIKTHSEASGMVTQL
T1 sequence (P05981 45-162 partner limits assumed): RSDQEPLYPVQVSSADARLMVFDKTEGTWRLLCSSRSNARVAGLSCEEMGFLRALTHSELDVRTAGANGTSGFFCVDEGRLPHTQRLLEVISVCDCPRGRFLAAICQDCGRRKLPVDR

Row | P2 Position % Activity Hepsin (hepsin [1]) [%] | P3 Position % Activity Hepsin (hepsin [1]) [%] | P4 Position % Activity Hepsin (hepsin [1]) [%] | P2 Position % Activity HGFA (HGFA [2]) [%] | P3 Position % Activity HGFA (HGFA [2]) [%] | P4 Position % Activity HGFA (HGFA [2]) [%] | % activity, P1 position, HGFA (HGFA [3]) [%] | % activity, P1 position, Hepsin (hepsin [4]) [%] | Molecule
1 | 0.00 | 20.14 | 24.76 | 0.00 | 7.08 | 10.56 | 0.00 | 0.00 | D-Leu
2 | 58.40 | 25.85 | 41.99 | 39.80 | 17.60 | 11.78 | 0.00 | 0.14 | L-Nva
3 | 57.96 | 47.00 | 56.24 | 5.83 | 100.00 | 22.07 | 0.00 | 0.24 | L-hArg
4 | 0.00 | 24.90 | 1.48 | 0.00 | 87.59 | 7.65 | 0.00 | 0.50 | D-Trp
5 | 0.00 | 36.69 | 25.74 | 0.00 | 6.45 | 8.61 | 0.00 | 0.24 | D-Thr
6 | 0.00 | 38.75 | 18.48 | 0.00 | 15.16 | 7.38 | 0.00 | 0.00 | D-Asn
7 | 0.00 | 48.09 | 18.44 | 0.00 | 9.84 | 7.11 | 0.00 | 0.00 | D-Ala
8 | 78.48 | 79.70 | 84.52 | 0.00 | 54.04 | 20.23 | 0.00 | 0.00 | L-Orn
9 | 0.00 | 24.92 | 13.15 | 0.00 | 15.22 | 8.13 | 0.00 | – | D-Phe
10 | 0.00 | 38.88 | 20.45 | 0.00 | 4.96 | 10.30 | 0.00 | 1.08 | D-Pro
11 | 62.04 | 24.09 | 40.93 | 45.52 | 19.15 | 11.76 | 0.00 | 0.07 | L-Nle
12 | 38.67 | 4.70 | 37.81 | 3.95 | 2.18 | 10.66 | 0.00 | 0.00 | L-Hyp
13 | 0.00 | 34.55 | 2.98 | 0.00 | 3.61 | 2.62 | 0.00 | 0.00 | D-Glu
14 | 11.40 | 68.16 | 22.86 | 1.68 | 16.63 | 6.64 | 0.00 | 0.00 | L-Met(O)
15 | 0.00 | 17.18 | 1.98 | 0.00 | 5.37 | 2.25 | 0.00 | 0.05 | D-Asp
16 | 0.00 | 29.94 | 12.66 | 0.00 | 17.32 | 10.09 | 0.00 | 0.23 | D-Tyr
17 | 32.27 | 29.53 | 36.68 | 6.32 | 13.41 | 6.44 | 0.00 | 0.42 | L-Cit
18 | 0.00 | 97.80 | 20.13 | 0.00 | 13.84 | 8.03 | 0.00 | 0.00 | D-Gln
19 | 11.55 | 54.84 | 21.84 | 0.00 | 10.86 | 7.94 | 0.00 | 0.02 | D-Ser
20 | 10.01 | 48.71 | 35.65 | 1.49 | 24.27 | 13.31 | 0.00 | 0.03 | L-Dap
21 | 57.23 | 70.75 | 80.32 | 2.08 | 43.98 | 23.62 | 100.00 | 100.00 | CC(=O)N[C@@H](C)C(=O)N[C@@H](CCCNC(=N)N)C(=O)N[C@@H](CC(C)C)C(=O)N[C@@H](CCCNC(=N)N)C(=O)Nc1ccc2c(CC(N)=O)cc(=O)oc2c1 [Ac-Ala-Arg-Leu-Arg-ACC] (Ac-ARLR-{ACC})
22 | 0.00 | 64.56 | 49.84 | 0.00 | 21.11 | 17.66 | 0.00 | 0.23 | D-Lys
